This is an account of results in patent US20160213635A1, “COMPOSITIONS USEFUL IN THE PREVENTION OR TREATMENT OF SKIN CANCER” (GIULIANI S.P.A., priority 2013, published 2016).

The test system of this test is NHKs cells. Put plainly: ELISA CPDs determination after pre-treatment with G01 and subsequent UVB irradiation. The conditions noted are these: pre-treatment 90 μM; UVB 80 mJ/cm^2; 6 h and 24 h. It is filed as cell-based, human. The protocol: The NHKs cells were plated in the specific culture medium and maintained in culture for 24±2 h to allow adhesion to the plate. Then, the keratinocytes were treated for 24±2 h with the compound G01, in a concentration of 90 μM. Subsequently, the plates identified as +UVB and +G01/UVB were exposed, in the irradiation medium, to a UVB dose of 80 mJ/cm^2, while the control plates (Ctr) and those treated only with the compound under examination (G01) were maintained in the dark and at room temperature for a period of time equal to the irradiation time. The irradiation medium was then replaced with the culture medium. Based on the preliminary results obtained on a broader time range, post-treatment times of 6 h and 24 h were selected, after which the plates were processed according to the procedure described in the work instruction specific for the DNA extraction. The determination of the pyrimidine cyclobutane dimers, CPDs, was performed using a specific ELISA kit following the procedure described in the user manual.
Background: In an ELISA, binding on a coated surface is turned into a signal by an enzyme label.

Take `C/C=C/C=C/C=C/C(=O)O` [G01, 2,4,6-trans-octatrienoic acid]: the “CPDs adducts (pyrimidine cyclobutane dimers)” value is recorded as “promote the removal of CPDs adducts”.
